Measurements as given in patent US5187074A, “Method of hydroxylation with ATCC 55086” (Merck & Co., Inc., priority 1992, dated 1993).

Biological target: T1, HIV protease (Human immunodeficiency virus type 1 group M subtype B, UniProt P12497)
T1 construct: HIV protease expressed in Escherichia coli; made in house; host or cells: Escherichia coli
Assay: Assay for Inhibition of Recombinant HIV Protease (APRIN 2.1)
Type: biochemical
Conditions: pH 5.5, 60 min, 37° C.
Protocol: Assay for Inhibition of Recombinant HIV Protease (APRIN 2.1)
Inhibition studies were performed on the reaction of the HIV protease expressed in Escherichia coli with a tritiated peptide substrate [^3 H]-acetyl-Val-Ser-Gln-Asn-(beta-napthyl-Ala)-Pro-Ile-Val-Gln-Gly-Arg-Arg-NH2 (MW 1800). The two arginine residues at the carboxyl terminus give this peptide an overall positive charge at acidic pH and enable it to bind to the H^+ form of DOWEX AG-50W-X8 resin and similar resins.
Aliquots of 25 μl containing 6.0-8.0 nM HIV protease in assay buffer (100 mM sodium acetate, pH 5.5 and 0.1% BSA) are placed in assay tubes. The reaction is initiated by addition of 25 μl aliquots of 4.2 μM tritiated peptide substrate in 100 mM sodium acetate, pH 5.5. After incubation for 60 min at 37° C., the reaction is stopped with 100 μl of 5% H3 PO4, then analysed by application of column chromatography.

Row | SMILES | inhibition at 0.0116 µg/mL (11.6 ng/ml, major metabolite from culture S-29-145, read-out: APRIN 2.1 Act. (% Inhib.)) [%] | inhibition at 0.000625 µg/mL (0.625 ng/ml, control) [%] | inhibition at 0.00125 µg/mL (1.25 ng/ml, control) [%] | inhibition at 0.0025 µg/mL (2.5 ng/ml, control) [%] | inhibition at 0.005 µg/mL (5 ng/ml, control) [%] | inhibition at 0.01 µg/mL (10 ng/ml, control) [%]
1 | CC(C)(CO)OC(=O)N[C@@H](Cc1ccccc1)[C@@H](O)C[C@@H](Cc1ccc(OCCN2CCOCC2)cc1)C(=O)N[C@H]1c2ccccc2C[C@H]1O [L-697,811] | 92 | – | – | – | – | –
2 | CC(C)(C)OC(=O)N[C@@H](Cc1ccccc1)[C@@H](O)C[C@@H](Cc1ccc(OCCN2CCOCC2)cc1)C(=O)N[C@H]1c2ccccc2C[C@H]1O [L-689,502, N-(cis-2(R)-hydroxy-1(S) -indanyl)-5(S)-(1,1-dimethylethoxycarbonylamino)-4(S)-hydroxy-6-phenyl-2(R)-[(4-(2-(4-morpholinyl)ethoxy)phenyl)methyl]-hexanamide] | – | -2 | 21 | 54 | 69 | 86
